The values below come from US7897629B2, “Therapeutic compounds” (Allergan, Inc., priority 2006, dated 2011).

Each structure is given as a SMILES string.

Assay [1] has as its target T1, EP2 (Homo sapiens, UniProt P43116). The experiment in a line: EP2 cAMP functional assay. It is filed as cell-based.
Assay [2] deals with T1, EP2. As to the kind of experiment: EP2 Ca2+ signal assay. It is filed as cell-based.
The target in assay [3] is T1, EP2. The experiment in a line: EP2 binding assay.

T1 sequence (P43116 whole entry): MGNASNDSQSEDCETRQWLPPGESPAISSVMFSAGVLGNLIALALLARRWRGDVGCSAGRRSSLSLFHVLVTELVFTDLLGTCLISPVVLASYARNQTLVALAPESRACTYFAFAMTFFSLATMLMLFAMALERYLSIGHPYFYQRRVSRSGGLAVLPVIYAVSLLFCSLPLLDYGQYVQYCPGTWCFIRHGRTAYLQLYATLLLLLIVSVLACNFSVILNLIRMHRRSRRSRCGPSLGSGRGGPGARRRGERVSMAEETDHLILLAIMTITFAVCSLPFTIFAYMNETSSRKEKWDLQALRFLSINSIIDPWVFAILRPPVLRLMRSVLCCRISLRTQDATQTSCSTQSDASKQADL

Usually EC50 stands for the concentration at which the effect is half-maximal. Low readings indicate an effect from little substance, high ones a need for much substance. Take `CCCCCC(O)c1ccc(N2C(COCc3ccc(C(=O)O)s3)CCS2(=O)=O)cc1` (stereo not drawn) [Compound 15]: the EC50 in assay [1] is 115 nM; in assay [2], 8.32 µM; in assay [3], 2920 nM.
The matching figures for `CCCCCC(=O)c1ccc(N2C(COCc3ccc(C(=O)O)s3)CCS2(=O)=O)cc1` (stereo not drawn) [Compound 17]: 98 nM, 5.42 µM and 1200 nM.
